Experimental findings from patent publication US10011602B2, “Immunological reagents and uses therefor” (THE UNIVERSITY OF MELBOURNE, priority 2012, dated 2018) are described below.

The test deals with human MAIT cells from peripheral blood. Description: Activation of primary MAIT cells from PBMCs (CD69, IFN-γ, TNF-α). The test is classed as cell-based. The following applies: PBMCs with C1R cells expressing MR1. How it is done:
PBMCs from a healthy donor were mixed with C1R-huMR1 cells (10^5 each/well). Salmonella SL1344 supernatant (2 μl) from cultures grown in LB supplemented with 25 μg/ml streptomycin (Sigma) for 4 hr at 37° C., or compounds (35A, 36A, 48G: 25 μg/ml final, A-6FP: 10 μM final) or PMA (2 ng/ml+ionomycin (1 ng/ml) added in a total volume of 220 μl RF-10, and incubated overnight at 37° C. Cells were stained with anti-CD3-PE-Cy7 (eBioscience, 20 μg/ml), anti-CD4-APC-Cy7 (Biolegend, 1.7 μg/ml), anti-CD161-APC (Miltenyi Biotec, 1:50), FITC-conjugated D5 (anti-MAIT TCR, 10 μg/ml) and either anti-CD69-PE (BD Biosciences 1:50), anti-IFNγ-PE (BD Pharmingen 10 μg/ml) or anti-TNFα-PE (BD Pharmingen 10 μg/ml), and analyzed by flow cytometry using a Canto II cytometer and Diva software. For intracellular cytokine staining, brefeldin A (10 μg/ml) was added to the assay after the first 1 hr and the incubation allowed to proceed overnight. Cells were fixed with 1% parformaldehyde after staining for surface markers and permeabilised with 1% saponin during cytokine stains. MAIT cells were defined as CD3^+, CD4^−, CD161^+, D5^+ after gating on PBMCs using FSC and SSC.
PBMCs from a healthy donor were mixed with C1R cells expressing MR1 (10^5 each/well). Salmonella SL1344 supernatant (2 μl) from cultures grown in LB supplemented with 25 μg/ml streptomycin (Sigma) for 4 hr at 37° C., or compounds (RL-6,7-diMe, RL-6-Me-7-OH, 6FP: 76.2 μM final, rRL-6-HM: 0.152 μM final) or PMA (2 ng/ml+ionomycin (1 ng/ml) added in a total volume of 220 μl RF-10, and incubated overnight at 37° C. Cells were stained with anti-CD3-PE-Cy7 (eBioscience, 20 μg/ml), anti-CD4-APC-Cy7 (Biolegend, 1.7 μg/ml), anti-CD161-APC (Miltenyi Biotec, 1:50), FITC-conjugated D5 (anti-MAIT TCR, 10 μg/ml) and either anti-CD69-PE (BD Biosciences 1:50), anti-IFNγ-PE (BD Pharmingen 10 μg/ml) or anti-TNFα-PE (BD Pharmingen 10 μg/ml), and analyzed by flow cytometry using a Canto II cytometer and Diva software. […] CD69 expression was analysed by flow cytometry. […]

In the case of `Cc1nc2c(=O)[nH]c(=O)nc-2n(C[C@H](O)[C@H](O)[C@H](O)CO)c1C` [Compound 1, 6,7-dimethyl-8-D-ribityllumazine], the “Activation of MAIT cells (CD69 upregulation, intracellular IFN-γ and TNF-α)” value was “specifically activated”.
